Data from ChEMBL document CHEMBL1132021, “Synthesis of an imidazo[1,2-e]purine-acridine heterodimer for targeting abasic sites in DNA” (Bioorg Med Chem Lett, 1999).

Assay: Ionization state of the molecule at physiological pH was evaluated by potentiometry.
Format: ADME

Nc1ncnc2c1nc(N)n2[C@@H]1O[C@H](CO)[C@@H](O)[C@H]1O
pKa: 4

COc1ccc2nc3cc(Cl)ccc3c(N)c2c1
pKa: 8.99
